Source: PMC11148078, “Potent activity of polymyxin B is associated with long-lived super-stoichiometric accumulation mediated by weak-affinity binding to lipid A” (Nature Communications, 2024)
“Also recorded” adds a separate entry of the source. Bridge positions count the residues as written; N and C are the ends. Square brackets hold non-standard residues; d marks the D form. Peptide text beside a SMILES is read from it. * marks the point of attachment. ξ: configuration not given here. Hexanoyl(4ξ-Me) = CCC(C)CCC(=O)*; dOrn = NCCC[C@@H](N)C(=O)O; Orn = NCCC[C@H](N)C(=O)O

Tests used:
wt-OMVs [1] = experiment: Single-cycle kinetic SPR binding to immobilized wt-OMVs; parameters: species or system E. coli; conditions: serial doubling injections, C1 chip
Method: (§1) Polymyxin B was covalently attached to a C1 chip (Series S Sensor Chip C1, Cytiva) using an amine coupling kit (Cytiva). Cartoon in Fig. 1A created with BioRender (biorender.com). Briefly, equal amounts of reagents N-hydroxysuccinimide and 1-ethyl-3-(3-dimethylaminopropyl) carbodiimide hydrochloride were mixed as per manufacturer’s instructions and immediately added to the gold chip surface for 2 min, washed with distilled deionized water, and dried. Sufficient polymyxin B (1 mM in 1 M HEPES buffer, pH 8) was added to cover the chip surface, incubated at room temperature for 1 h, washed as before, and then incubated with 1 M ethanolamine hydrochloride-NaOH, pH 8.5, for 1 min. The chip surface was washed with water, dried as previously described, immediately loaded into a Biacore S200, and primed with running buffer (described below) to equilibrate the system. C1 chips were used for multiple runs and discarded upon removal from the Biacore S200.
(§2) SCK C1-chip SPR experiments were performed in running buffer (Dulbecco’s phosphate-buffered salt solution 1x without calcium or magnesium (Fisher Scientific), pH 7.4, with 0.0005% tween-80 (Sigma) passed through a 0.2 µm filter) unless otherwise indicated. Inclusion of tween-80 prevented loss of polymyxin to the plastics[34] (also see Supplementary Information Methods). For experiments with brevicidine, which was suspended in DMSO, 0.125% DMSO was included in the running buffer. OMVs were diluted from frozen stocks to approximately 20–30 µg/ml protein in the OMV buffer. Capture of OMVs was performed at a low flow rate ([…]) for 300 s over the test channel(s) followed by a 300 s stabilization period. All subsequent steps were at a flow rate of […]. For single cycle kinetics, two-fold dilutions were injected over the channel(s) loaded with OMVs and a reference channel without OMVs for 30 s contact and 480 s dissociation. To regenerate chips, 0.5% SDS (desorb 1, Cytiva) was injected into all channels for 60 s at 30 µl/ml twice, with an extra buffer wash and four carry-over control steps to prevent residual SDS from disrupting the following cycle.
All single-cycle kinetic SPR traces shown were double-referenced (unless indicated) within the Biacore S200 Evaluation Software 1.0, exported as a.txt file, and imported (decimated) into GraphPad Prism (version 9.3.1 for Mac, GraphPad Software, San Diego, CA). For clarity, in some cases individual outlier data points (at buffer transitions) were removed when this would not change the overall data or conclusions.

wt-OMVs [2] = experiment: SPR chaser analysis (residence time), wt-OMVs; assay type: binding, E. coli; conditions: 25 °C, n≥3, (SD)
Method: (§3) The off-rate of the tightly bound fraction was estimated using a chaser analysis, where OMVs were pre-saturated with polymyxin B and then re-saturated after an extended time interval (Supplementary Information Fig. S11A). […] A t1/2 of >6 h was determined for polymyxin B binding to OMVs at both 25 and 37 °C (SI Table S3). The t1/2 of brevicidine, also measured by chaser analysis, was approximately 1 h on both wt-OMVs and polymyxin-resistant-OMVs (SI Table S3).
(§4) Binding and kinetic analysis of SPR-OMV assays […]
To determine the residence time of the test compound with OMVs, the ‘chaser method’ was used because it accounts for drift that can occur in the system over long incubation times 13. OMVs were loaded onto the chip as described above then 5 µM polymyxin B was injected using the ‘low-sample consumption’ setting for 300 sec ([…] flow rate), followed by a 240 sec dissociation time. A second dose of 5 µM polymyxin B was then injected for 60 sec ([…]) to assure saturation followed by a 2 h dissociation time prior to the ‘chaser’, a 60 sec pulse of 5 µM polymyxin B. The RUs of associated polymyxin B were determined 120 sec after the start of the dissociation. The change in RUs from before dosing to after the second dose, and the change in RUs from prior to the ‘chaser’ dose and 120 sec after the start of its dissociation were used to calculate the fraction occupancy of the material and the residence time/half-life as described 13. […]
PMBN) to LPS for 20 min. […]
20 sec with a Solarus plasma cleaner (Gatan). Grids were blotted and plunge-frozen by Vitrobot (ThermoFisher Scientific, Waltham, MA) at 4°C, 100% relative humidity, blot force 7, and a 3 sec […]
TEM data collection was performed using a Titan Krios G3i (ThermoFisher Scientific, Waltham, MA) operating at 300 kV equipped with a BioQuantum energy filter and a K3 Summit direct electron detector operating at a nominal magnification of 105,000x (0.838 Å/pixel), an energy slit width of 20 eV, defocus range -1 to -3 μm, 3-sec exposure time, 60 frames per movie, a total electron fluence of ~64 e/Å2. Microscope and camera automation was accomplished by SerialEM14, and image processing (motion correction & CTF estimation) was performed using […]
(§5) Standard cryo-EM image processing software and methods were incompatible with the vesicle images, so a blinded visual scoring method for image analysis was used. Approximately 50 images from each sample and treatment condition that each contained at least one OMV (pooled in a single folder and blinded) were scored for number of vesicles touching (0-10+), and if the vesicle membranes appeared disrupted or abnormal. Sampling was not completely random as images of vesicles could not be obtained from areas with significant clumping. Images shown in […]

E. coli mcr1 = assay type: cell-based; conditions: pBAD-mcr-1
Method: (§6) Bacterial strains and plasmids are listed in SI Table S5. LB growth media was prepared according to manufacturer’s instructions and supplemented with 0.2% arabinose and carbenicillin (50 μg/mL) for the strains containing pBAD24-mcr1 plasmid. Cultures were started by inoculating 3 ml LB with 1–2 colonies from fresh overnight plates and grown at 37 °C until in log phase. Modified minimal inhibitory concentration (MIC) assays were performed in 96-well round bottom polystyrene plates (Corning) with a final volume of 100 µl in LB supplemented with tween-80 at 0.0005%. […] Polymyxin B sulfate (TCI Co. Ltd), polymyxin B nonapeptide (PMBN) (Sigma), and brevicidine (Genentech) were diluted directly in the assay plates. Bacteria were diluted in LB with tween-80 0.0005% and added to a final OD600 of 0.0005. Growth was measured via OD600 on a SpectraMax M5 plate reader after overnight static growth at 37 °C with humidity.

S. aureus WT = assay type: cell-based; conditions: LB + 0.0005% tween-80, overnight 37 °C
Method: as §6

E. coli PmrA^G53E = assay type: cell-based
Method: as §6

E. coli WT+rifampicin = experiment: Rifampicin potentiation / outer membrane permeability, wild-type E. coli; assay type: cell-based; conditions: rifampicin 1.56 µM; LB + 0.0005% tween-80, overnight 37 °C
Method: as §6

[3] = test system: resistant-OMVs (E. coli PmrA^G53E); experiment: Single-cycle kinetic SPR binding to immobilized resistant-OMVs; conditions: serial doubling injections, C1 chip
Method: as §1
as §2, with “To regenerate chips, 0.5% SDS (desorb 1, Cytiva) was injected into all channels for 60 s at 30 µl/ml twice, with an extra buffer wash and four carry-over control steps to prevent residual SDS from disrupting the following cycle.” left out

[4] = test system: E. coli PmrA^G53E+rifampicin; experiment: Rifampicin potentiation / outer membrane permeability, E. coli PmrA^G53E; assay type: cell-based
Method: as §6

resistant-OMVs = experiment: SPR chaser analysis (residence time), resistant-OMVs; assay type: binding, E. coli
Method: as §3, §4
To determine the residence time of the test compound with OMVs, the ‘chaser method’ was used because it accounts for drift that can occur in the system over long incubation times 13. […] A second dose of 5 µM polymyxin B was then injected for 60 sec ([…]) to assure saturation followed by a 2 h dissociation time prior to the ‘chaser’, a 60 sec pulse of 5 µM polymyxin B. The RUs of associated polymyxin B were determined 120 sec after the start of the dissociation. […]
as §5, with “abnormal.” for “abnormal. Sampling was not completely random as images of vesicles could not be obtained from areas with significant clumping. Images shown in”

E. coli mcr-1+rifampicin = experiment: Rifampicin potentiation / outer membrane permeability, E. coli mcr-1; assay type: cell-based
Method: as §6

Compound | SPR binding profile (wt-OMVs [1]) | t1/2 (wt-OMVs [2]) | antibacterial activity (E. coli mcr1) | MIC (S. aureus WT) | antibacterial activity (E. coli PmrA^G53E) | MIC in presence of rifampicin (E. coli WT+rifampicin) | SPR binding profile [3] | MIC in presence of rifampicin [4] | t1/2 (resistant-OMVs; 25 °C, OMVs from PmrA^G53E and pmcr1 strains (n=2 each), (SD)) | t1/2 of bound complex (resistant-OMVs; polymyxin-resistant-OMVs) | MIC in presence of rifampicin (E. coli mcr-1+rifampicin)
CCC(C)CCC(=O)N[C@H](CC(N)=O)C(=O)N[C@H](Cc1ccc(O)cc1)C(=O)N[C@H](Cc1c[nH]c2ccccc12)C(=O)N[C@H](CCCN)C(=O)N[C@@H](CCCN)C(=O)NCC(=O)N[C@H](CCCN)C(=O)N[C@@H](Cc1c[nH]c2ccccc12)C(=O)N[C@@H]1C(=O)N[C@@H]([C@@H](C)CC)C(=O)NCC(=O)N[C@@H](CO)C(=O)O[C@@H]1C (stereo partly drawn) [Brevicidine] ({Hexanoyl(4ξ-Me)}-[dN][dY][dW][dOrn][Orn]G[dOrn]WTIGS; ester 9-C; N-terminus assumed) | accumulation of a tightly bound species and a superimposed saw-tooth profile | 1.09 (0.20) h | exhibits antibacterial activity against strains with polymyxin-resistant lipid A modifications | > 40 µM | exhibits antibacterial activity against strains with polymyxin-resistant lipid A modifications | 0.078 µM | indistinguishable from its binding to wt-OMVs; also recorded: identical response to wt-OMVs and resistant-OMVs | 0.078 µM | 1.17 (0.57) h | approximately 1 h | 0.078 µM
Colistin | dominated by the accumulation of tightly bound polymyxin B and a superimposed saw-tooth profile associated with transient binding | – | – | – | – | – | – | – | – | – | –
